Like-named read-outs stand apart in the source and are kept apart here.
Target: T1, recombinant GABAA receptor (α1 β1 γ2L) expressed by population A cells (Bos taurus, UniProt P08219+P08220+P22300)
T1 construct: expressed in transfected cells; clone 'population A'
T1 sequence (P08219 28-456): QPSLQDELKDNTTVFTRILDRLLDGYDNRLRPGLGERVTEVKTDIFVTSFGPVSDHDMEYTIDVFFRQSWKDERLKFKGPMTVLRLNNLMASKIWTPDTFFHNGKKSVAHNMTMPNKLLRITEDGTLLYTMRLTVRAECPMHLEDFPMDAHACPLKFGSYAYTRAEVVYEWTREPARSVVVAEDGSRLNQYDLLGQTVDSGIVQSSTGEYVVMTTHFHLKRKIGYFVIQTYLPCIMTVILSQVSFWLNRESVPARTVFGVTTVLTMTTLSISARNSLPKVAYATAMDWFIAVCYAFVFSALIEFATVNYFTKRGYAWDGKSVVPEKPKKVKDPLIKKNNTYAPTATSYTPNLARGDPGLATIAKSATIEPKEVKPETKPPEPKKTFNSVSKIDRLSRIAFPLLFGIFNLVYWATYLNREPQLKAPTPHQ
T1 sequence (P08220 26-474): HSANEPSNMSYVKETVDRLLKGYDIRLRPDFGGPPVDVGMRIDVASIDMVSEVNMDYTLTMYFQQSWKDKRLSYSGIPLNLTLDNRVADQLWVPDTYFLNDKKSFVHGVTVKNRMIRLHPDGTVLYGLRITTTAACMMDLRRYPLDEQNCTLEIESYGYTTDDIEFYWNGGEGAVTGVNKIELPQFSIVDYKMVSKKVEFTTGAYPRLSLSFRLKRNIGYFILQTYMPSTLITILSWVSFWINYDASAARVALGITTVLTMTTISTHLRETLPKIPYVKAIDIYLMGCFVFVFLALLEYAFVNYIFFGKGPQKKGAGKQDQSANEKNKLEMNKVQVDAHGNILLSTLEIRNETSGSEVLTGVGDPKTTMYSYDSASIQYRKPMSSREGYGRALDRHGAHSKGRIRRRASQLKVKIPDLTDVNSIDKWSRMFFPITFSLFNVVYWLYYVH
T1 sequence (P22300 40-475): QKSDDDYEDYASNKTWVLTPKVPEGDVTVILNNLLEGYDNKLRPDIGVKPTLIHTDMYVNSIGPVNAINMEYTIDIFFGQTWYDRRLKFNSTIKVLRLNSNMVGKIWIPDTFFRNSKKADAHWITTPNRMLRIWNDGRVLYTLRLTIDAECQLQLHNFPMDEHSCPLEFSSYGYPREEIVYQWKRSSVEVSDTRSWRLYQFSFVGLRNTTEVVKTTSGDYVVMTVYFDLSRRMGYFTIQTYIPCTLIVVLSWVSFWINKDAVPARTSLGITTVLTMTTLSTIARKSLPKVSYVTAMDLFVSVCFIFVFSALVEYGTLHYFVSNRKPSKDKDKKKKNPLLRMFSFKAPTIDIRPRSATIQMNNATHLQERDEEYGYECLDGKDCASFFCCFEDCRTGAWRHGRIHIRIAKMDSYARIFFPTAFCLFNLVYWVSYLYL
Format: cell-based, bovine
Description: The nature of the GABAA receptor expressed by population A cells has been extensively characterised by electrophysiological techniques, using whole cell patch clamp.

[1] = whole cell patch clamp, qualitative

Row | Compound | potentiation of the response to GABA [1] | antagonism of the response to GABA [1] | other results
1 | NCCCC(=O)O [GABA, Gamma-amino butyric acid] | – | – | Hill coefficient of GABA concentration response curves (dexamethasone-induced cells, whole cell patch clamp): 1.9
2 | CC(=O)[C@H]1CC[C@H]2[C@@H]3CC[C@H]4C[C@H](O)CC[C@]4(C)[C@H]3C(=O)C[C@]12C [alphaxalone] | potentiated | – | –
3 | CCCC(C)C1(CC)C(=O)NC(=O)NC1=O (stereo not drawn) [pentobarbitone] | potentiated | – | –
4 | CN1CCc2cc3c(cc2[C@H]1[C@@H]1OC(=O)c2c1ccc1c2OCO1)OCO3 [bicuculline] | – | antagonised | –
5 | picrotoxin | – | antagonised | –
6 | Cc1nnc2ccc(-c3cccc(C(F)(F)F)c3)nn12 [CL218872] | – | – | potentiation of the response to GABA: potentiated
